How the values were obtained:
Format in all cases: in vivo, BALB/c mice
[1] = Organ weight and relative organ weight of OVA-sensitized mice
Procedure: (§1) Inbred female BALB/c mice (4 weeks old) were purchased from the Laboratory Animal Center, National Taiwan University and housed in a room with constant temperature of 23±2° C. The animal room was kept on a 12-h light and 12-h dark cycle. The mice were housed and kept on free diet and water to acclimatize before feeding the experimental diet. Diet ingestions are recorded every 3˜4 days, and mice body weight were recorded every week. When mice were in 8 week old, the mice were sensitized and challenged to induce allergic reaction at week 8, 10 and 12 by an intraperitonal injection (i.p.) of antigen containing ovalbumin antigen and adjuvant (Imject® Alum). Blood samples were collected on two days before injection and on two weeks after last injection for analysis of OVA-specific antibodies. Mice were divided in five groups based on OVA-specific IgE antibody and body weight, namely OVA-oil group (the control group), OVA-BGP group (feed containing 5% of freeze dried bitter melon powder), OVA-CLN group (tube feeding containing 35 mg CLN), OVA-Pred (prednisolone, the positive control group), and PBS-oil (the non-sensitized group), respectively. Mice diet was based on AIN-76 formulation (feed composition referred to J. Nutri. 107: 1340-1384, 1977). Administration of steroid prednisolone by tube feeding started 4 days before AHR induction and last to the day sacrificed. After 4 days of feeding, mice were challenged with 5% aerosol of OVA solution, while the PBS-oil group was administered with aerosol PBS. Change of mice airway resistance was measured after 13 days of feeding, and mice were sacrificed on day 16.
After 16 days of feeding, the absolute weight of heart of OVA-BGP treated mice was less than the OVA-oil treated mice. […] There was no difference between the OVA-CLN group and control group. […] The absolute weight and relative weight of lung of PBS-oil mice group were lower than sensitized mice groups.

OVA-sensitized mice [2] = test: Airway hyperresponsiveness (Penh, methacholine challenge, whole-body plethysmograph); settings: Mch challenge 12.5 mg/ml or higher; after 13 days feeding; FIG. 2
Procedure: Inbred female BALB/c mice (4 weeks old) were purchased from the Laboratory Animal Center, National Taiwan University and housed in a room with constant temperature of 23±2° C. The animal room was kept on a 12-h light and 12-h dark cycle. The mice were housed and kept on free diet and water to acclimatize before feeding the experimental diet. Diet ingestions are recorded every 3˜4 days, and mice body weight were recorded every week. When mice were in 8 week old, the mice were sensitized and challenged to induce allergic reaction at week 8, 10 and 12 by an intraperitonal injection (i.p.) of antigen containing ovalbumin antigen and adjuvant (Imject® Alum). […] Change of mice airway resistance was measured after 13 days of feeding, and mice were sacrificed on day 16. […]
After an inhaled antigen challenge, airway resistance of the mice were tested the following day using Buxco system (Biosystem XA, Buxco Electronics Inc. Sharon, Conn., USA), in which the differential pressure transducer (Buxco) and preamplifier (MAX II, Buxco) were used to collect change information of mice respiratory and to calculate lung Penh value (Penh, enhanced pause). […] After excess aerosol was evacuated, an average Penh value per minute was recorded. […] The same challenge process was performed at each concentration, and an average Penh value per minute was recorded after 3 mins after each challenge. […]

OVA-sensitized mice [3] = test: Leukocyte numbers in BALF; settings: FIG. 3A-3B
Procedure: Inbred female BALB/c mice (4 weeks old) were purchased from the Laboratory Animal Center, National Taiwan University and housed in a room with constant temperature of 23±2° C. The animal room was kept on a 12-h light and 12-h dark cycle. The mice were housed and kept on free diet and water to acclimatize before feeding the experimental diet. Diet ingestions are recorded every 3˜4 days, and mice body weight were recorded every week. When mice were in 8 week old, the mice were sensitized and challenged to induce allergic reaction at week 8, 10 and 12 by an intraperitonal injection (i.p.) of antigen containing ovalbumin antigen and adjuvant (Imject® Alum). Blood samples were collected on two days before injection and on two weeks after last injection for analysis of OVA-specific antibodies. […] Change of mice airway resistance was measured after 13 days of feeding, and mice were sacrificed on day 16.
After mice were sacrificed, fur and skin in the mice neck were incised and muscle surrounding the trachea was tear open to expose the trachea. […] Total leukocytes were counted with a hemocytometer using trypan blue dye exclusion method. […] Two hundreds of leukocytes were counted on each slide, which includes four different cells, eosinophil, neutrophil, lymphocyte and monocyte.

[4] = tested on: splenocytes of OVA-sensitized mice; test: Cytokine secretion by OVA-specific stimulated splenocytes ex vivo; settings: mean ± SD
Procedure: as §1
Mice were sacrificed and their spleens were aseptically removed and suspended in 3 cm incubation dish containing 3 ml TCM/RPMI solution. Spleen tissue was minced with rear end of syringe and the upper layer cell suspension was collected and placed in 15 ml centrifuge tube. Another 3 ml HBSS buffer was added to wash the dish and residual cells were collected. Cell suspensions were centrifuged at 1500 rpm for 10 mins Supernatant was discard and the precipitated cells were re-suspend in ACK lysing buffer. After 1 minute, HBSS buffer was added to the suspension and then centrifuged at 1500 rpm for 10 mins Cell pellet was washed with HBSS buffer for 3 times. 2 ml of TCM/RPMI medium was added to re-suspend the cells. Cell number was counted and adjusted to 1×10^7 cell/ml. 500 μl of the cell suspension was added to 48 well plates. […] After 48 hours incubation, supernatants were collected and stored at −80° C.
BD Pharmingen System was provided as an example. Cytokine concentration was determined by ABC (avidin-biotin conjugated system) ELISA method. Primary antobiody was added to the 96-microwell plate wells and incubated at 4° C. overnight. After incubation, plates were washed four times with PBST buffer. To block non-specific binding, block buffer were added to each well and the plates were incubated at room temperature for 1 h. After incubation, plates were washed five times with ELISA wash buffer. Appropriately diluted samples or standard solution were then added to the 96-microwell plate wells and the plates were incubated at room temperature for 2˜3 h. After incubation, plates were washed with buffer six times then secondary antibody for detection was added to each well. Plates were incubated for another 1 h. After incubation, plates were washed seven times with ELISA wash buffer. […] The plates were measured the absorbance at 405 nm by ELISA reader.

[5] = Growth and feed intake of OVA-sensitized mice
Procedure: as §1
BALB/c mice were sensitized every other week for three times. Two weeks before the last sensitization mice were divided into five groups according to OVA-specific IgE and body weight, then different experimental diet were provided for 16 days. […] In the aspect of daily ingestion, no difference was observed among these mice groups.

OVA-sensitized mice [6] = test: Cytokine, eotaxin and PGE2 level in BALF (ELISA); settings: day 16; mean ± SD
Procedure: as §1
After mice were sacrificed, fur and skin in the mice neck were incised and muscle surrounding the trachea was tear open to expose the trachea. A small hole was made on the trachea near the head with scissors to intubate tracheal tubing. After intubation, their lungs and airways were lavaged with […] of sterile PBS. Two ml of bronchoalveolar lavage fluid (BALF) was centrifuged at 1500 rpm for 7 mins at 4° C. The supernatant (BALF) was collected and stored at −80° C. for cytokine concentration determination. The cell pellet was washed with HBSS buffer twice and re-suspended in 10% FBS/RPMI medium. Total leukocytes were counted with a hemocytometer using trypan blue dye exclusion method. After the cell concentration was adjusted to 5×10^5 cell/ml, aliquots of 100 μl total cells were centrifuged with cytospin at 500 rpm for 2 mins and then stained with Liu A for 30 seconds. After excess stain was washed off and air dried, the cells were stained with Liu B for 5 seconds. Slides were air-dried and sealed with Arabic gum. […] Two hundreds of leukocytes were counted on each slide, which includes four different cells, eosinophil, neutrophil, lymphocyte and monocyte.
BD Pharmingen System was provided as an example. Cytokine concentration was determined by ABC (avidin-biotin conjugated system) ELISA method. Primary antobiody was added to the 96-microwell plate wells and incubated at 4° C. overnight. After incubation, plates were washed four times with PBST buffer. To block non-specific binding, block buffer were added to each well and the plates were incubated at room temperature for 1 h. After incubation, plates were washed five times with ELISA wash buffer. Appropriately diluted samples or standard solution were then added to the 96-microwell plate wells and the plates were incubated at room temperature for 2˜3 h. After incubation, plates were washed with buffer six times then secondary antibody for detection was added to each well. Plates were incubated for another 1 h. After incubation, plates were washed seven times with ELISA wash buffer. Streptavidin-HRP (horseradish peroxidase) was added to each well and the reaction was allowed to react for 30 mins. After reaction, the plates were washed with ELISA buffer eight times and then HRP-substrate solution was added to the 96-microwell plate wells. […]

[7] = after 16 days feeding, mean ± SD

## C[C@]12C=CC(=O)C=C1CC[C@@H]1[C@@H]2[C@@H](O)C[C@@]2(C)[C@H]1CC[C@]2(O)C(=O)CO [OVA-Pred, prednisolone]
[1]; in words
  Relative weight of liver vs OVA-oil group: significant lower
OVA-sensitized mice [2]
  Airway hyperresponsiveness (Penh) vs OVA-oil group: alleviation of AHR
OVA-sensitized mice [3]
  Total leukocyte number in BALF vs OVA-oil group: less than those in the OVA-oil group
[4]
  IFN-γ secretion by splenocytes: 110 ± 50 pg/mL
  IL-2 secretion by splenocytes: 66.9 ± 20.9 pg/mL
  IL-4 secretion by splenocytes: 33.4 ± 14.5 pg/mL
  IL-5 secretion by splenocytes: 2.12 ± 1.85 ng/mL
  IL-13 secretion by splenocytes: 322 ± 118 pg/mL

## CCCC/C=C/C=C/C=C\CCCCCCCC(=O)O [OVA-CLN, Conjugated linolenic acid]
[5]; 14 week-old, before experimental feeding, mean ± SD
  Initial Body weight: 22.7 ± 1.30 g
[5]; 16 week-old, after 16 days feeding, mean ± SD
  Final Body Weight: 22.0 ± 1.52 g
[5]; 16 days feeding, in words
  Effect on mice growth (body weight): did not affect mice growth
[5]; mean ± SD
  Feed Intake: 2.99 ± 0.31 g/day
[1]; [7]
  Heart absolute weight: 0.12 ± 0.02 g
  Heart relative weight: 0.56 ± 0.06%
  Kidney absolute weight: 0.29 ± 0.01 g
  Kidney relative weight: 1.30 ± 0.05%
  Liver absolute weight: 1.28 ± 0.15 g
  Liver relative weight: 5.80 ± 0.38%
  Lung absolute weight: 0.48 ± 0.08 g
  Lung relative weight: 2.21 ± 0.46%
  Spleen absolute weight: 0.080 ± 0.026 g
  Spleen relative weight: 0.37 ± 0.12%
OVA-sensitized mice [2]
  Airway hyperresponsiveness (Penh) vs OVA-oil group: alleviation of AHR
OVA-sensitized mice [6]
  Eotaxin in BALF: 27.3 ± 8.5 pg/mL
  IL-1β in BALF: 21.0 ± 9.5 pg/mL
  IL-4 in BALF: 39.1 ± 33.9 pg/mL
  IL-5 in BALF: 326 ± 183 pg/mL
  IL-6 in BALF: 12.2 ± 27.8 pg/mL
  IL-13 in BALF: 254 ± 75 pg/mL
  PGE2 in BALF: 17.2 ± 16.1 ng/mL
  TNF-α in BALF: 64.5 ± 29.3 pg/mL
OVA-sensitized mice [3]
  Eosinophils in BALF vs OVA-oil group: less eosinophils infiltration
